Measurements reported in ChEMBL document CHEMBL5321287, “Discovery, Synthesis, and Evaluation of Novel Dual Inhibitors of a Vascular Endothelial Growth Factor Receptor and Poly(ADP-Ribose) Polymerase for BRCA Wild-Type Breast Cancer Therapy” (J Med Chem, 2023).
Activity calls are given as the source filed them. The rule behind the calls is not given here.

Columns and labels:
MDA-MB-231 [1] = assay: Antiproliferative activity against human MDA-MB-231 cells assessed as cell growth inhibition
MCF7 [2] = assay: Antiproliferative activity against human MCF7 cells assessed as cell growth inhibition
HCC1937 = assay: Antiproliferative activity against human HCC1937 cells assessed as cell growth inhibition
MCF7 [3] = assay: Inhibition of colony formation in human MCF7 cells at 4 uM incubated for 10 days in presence of 1:1 of compound:Olaparib by crystal violet staining based assay; assay type: functional, cell-based; details: time 10.0 day
MCF7 [4] = assay: Induction of cell cycle arrest at G2/M phase in human MCF7 cells at 4 uM by Annexin-V-FLUOS staining based flow cytometry; assay type: functional
MDA-MB-231 [5] = assay: Antiproliferation activity against human MDA-MB-231 cells assessed as decrease in Ki67 expression at 4 uM incubated for 48 hrs in presence of 1:1 of compound:Olaparib by immunofluorescence analysis; assay type: functional, cell-based
MDA-MB-231 [6] = assay: Antimigratory activity against human MDA-MB-231 cells at 4 uM incubated for 1 hr in presence of 1:1 of compound:Olaparib by wound healing assay; assay type: functional, cell-based
MDA-MB-231 [7] = assay: Antimigratory activity in human MDA-MB-231 cells assessed as downregulation of MMP-2 level at 4 uM by DAPI staining based immunofluorescence analysis; assay type: functional, cell-based
MCF7 [8] = assay: Antimigratory activity in human MCF7 cells assessed as upregulation of E-cadherin level at 4 uM incubated for 2 days by immunoblot analysis; assay type: functional, cell-based; details: time 2.0 day
MCF7 [9] = assay: Antimigratory activity in human MCF7 cells assessed as downregulation of MMP-2 level at 4 uM incubated for 2 days in presence of 1:1 of compound:Olaparib by immunoblot analysis; assay type: functional, cell-based; details: time 2.0 day
MCF7 [10] = assay: Downregulation of Olaparib-induced PAR expression in human MCF7 cells at 4 uM incubated for 2 days by Western blot analysis; assay type: functional, cell-based; details: time 2.0 day
MDA-MB-231 [11] = assay: Induction of DNA damage in human MDA-MB-231 cells assessed as increase in comet tail length at 4 uM in presence 1:1 of Olaparib by alkaline comet assay; assay type: functional, cell-based
MDA-MB-231 [12] = assay: Induction of DNA damage in human MDA-MB-231 cells assessed as increase in gamma-H2AX level at 4 uM incubated for 48 hrs by DAPI staining based immunofluorescence analysis; assay type: functional, cell-based
MDA-MB-231 [13] = assay: Induction of HR DNA repair in human MDA-MB-231 cells xenografted in BALB/c nude mouse assessed as decrease in BRCA1 level at 50 mg/kg, po for 14 days in presence of 1:1 of compound:Pazopanib by H and E staining based IHC analysis; assay type: functional, organism-based; details: time 14.0 day
MDA-MB-231 [14] = assay: Induction of HR DNA repair in human MDA-MB-231 cells xenografted in BALB/c nude mouse assessed as decrease in FOXM1 level at 50 mg/kg, po for 14 days in presence of 1:1 of compound:Olaparib by Western blot analysis; assay type: functional, organism-based; details: time 14.0 day
MDA-MB-231 [15] = assay: Induction of HR DNA repair in human MDA-MB-231 cells xenografted in BALB/c nude mouse assessed as decrease in RAD51 level at 50 mg/kg, po for 14 days in presence of 1:1 of compound:Olaparib by Western blot analysis; assay type: functional, organism-based; details: time 14.0 day
MDA-MB-231 [16] = assay: Antimigratory activity in human MDA-MB-231 cells xenografted in lungs of BALB/c nude mouse assessed as decrease in MMP2 level in lungs at 50 mg/kg administered once a day measured after 14 days in presence of 1:1 of compound:Olaparib by IHC analysis; assay type: functional, organism-based; details: time 14.0 day

Q: `Cc1ccc(Nc2nccc(N(C)c3ccc4c(C)n(C)nc4c3)n2)cc1S(N)(=O)=O` [PAZOPANIB] was tested. Which IC50 (MDA-MB-231 [1]) did it give?
A: The IC50 was greater than 10 µM.

Q: And the IC50 (MCF7 [2])?
A: Its IC50 is greater than 10 µM.

Q: What about the IC50 (HCC1937) of the same compound?
A: The IC50 was greater than 10 µM.

Q: And the inhibition (MCF7 [3])?
A: The inhibition was “Active”.

Q: And the Activity (MCF7 [4])?
A: The Activity was “Active”.

Q: And the Activity (MDA-MB-231 [5])?
A: The Activity was “Active”.

Q: What about the Activity (MDA-MB-231 [6]) of the same compound?
A: Its Activity is “Active”.

Q: And the Activity (MDA-MB-231 [7])?
A: The Activity was “Active”.

Q: What about the Activity (MCF7 [8]) of the same compound?
A: The Activity was “Active”.

Q: What about the Activity (MCF7 [9]) of the same compound?
A: Its Activity is “Active”.

Q: And the Activity (MCF7 [10])?
A: The Activity was “inactive”.

Q: And the Activity (MDA-MB-231 [11])?
A: Its Activity is “Active”.

Q: And the Activity (MDA-MB-231 [12])?
A: The Activity was “Active”.

Q: And the Activity (MDA-MB-231 [13])?
A: The Activity was “Active”.

Q: What about the Activity (MDA-MB-231 [14]) of the same compound?
A: Its Activity is “Active”.

Q: And the Activity (MDA-MB-231 [15])?
A: The Activity was “Active”.

Q: What about the Activity (MDA-MB-231 [16]) of the same compound?
A: Its Activity is “Active”.
